Molecules are shown by their SMILES.

Holding throughout (type): in vivo
The test system of experiment [1] is Amaranthus retoflexus (AMARE). The experiment can be described thus: Post-emergence herbicide test, glasshouse, percentage damage. The note with it: 1000 g/ha, evaluated after 13 days. The procedure, abridged: (§1)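 Percentage damage, recorded 13 days after treatment, is given as a five-point score (1=0-20%, 2=21-40%, 3=41-60%, 4=61-80%, 5=81-100%). Plants grown in soil pots under 24/16 °C, 14 h light and 65% humidity received a 500 g/ha spray (unless stated otherwise).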

The subject of experiment [2] is Echinochloa crus-galli (ECHCG). The experiment is described as above. To be noted: 1000 g/ha, evaluated after 13 days. The procedure, abridged: as §1
Experiment [3] deals with Ipomoea hederacea (IPOHE). The description is as above. The note with it: 1000 g/ha, evaluated after 13 days. The procedure, abridged: as §1
Experiment [4] concerns Lolium perenne (LOLPE). The description is as above. The note with it: 1000 g/ha, evaluated after 13 days. The procedure, abridged:
as §1

Experiment [5] has as its system Setaria faberi (SETFA). Described as above. To be noted: 1000 g/ha, evaluated after 13 days. The procedure, abridged:
as §1

Experiment [6] has as its system Solanum nigrum (SOLNI). The experiment is described as above. To be noted: 1000 g/ha, evaluated after 13 days. An outline of the steps: as §1
Experiment [7] deals with Amaranthus retoflexus (AMARE). The experiment can be described thus: Pre-emergence herbicide test, glasshouse, percentage damage. The note with it: rate 1000 g/ha, evaluated after 13 days. The procedure, abridged:
as §1

Experiment [8] has as its system Echinochloa crus-galli (ECHCG). The experiment is described as above. To be noted: rate 1000 g/ha, evaluated after 13 days. An outline of the steps:
as §1

Experiment [9] relates to Ipomoea hederacea (IPOHE). The description is as above. To be noted: rate 1000 g/ha, evaluated after 13 days. An outline of the steps:
as §1

For experiment [10], the system named is Lolium perenne (LOLPE). The experiment is described as above. To be noted: rate 1000 g/ha, evaluated after 13 days. The procedure, abridged:
as §1

Experiment [11] relates to Setaria faberi (SETFA). Described as above. To be noted: rate 1000 g/ha, evaluated after 13 days. The procedure, abridged: as §1
Experiment [12] deals with Solanum nigrum (SOLNI). Described as above. To be noted: rate 1000 g/ha, evaluated after 13 days. The procedure, abridged:
as §1

For the molecule `Fc1cc(Cl)cnc1Oc1cccc(F)c1-c1cc(C(F)F)on1` [Compound A30], in experiment [1], the “percentage damage caused to the plant, AMARE” value was 5 (5=81-100%). The “percentage damage caused to the plant, ECHCG” value in experiment [2] is recorded as 5 (5=81-100%). In addition, the “percentage damage caused to the plant, IPOHE” value in [3] was 5 (5=81-100%). Also, the “percentage damage caused to the plant, LOLPE” value with Lolium perenne (LOLPE) [4] was 5 (5=81-100%). For the same molecule, in the experiment on Setaria faberi (SETFA) [5], the “percentage damage caused to the plant, SETFA” value was 5 (5=81-100%). Further, the “percentage damage caused to the plant, SOLNI” value in the experiment on Solanum nigrum (SOLNI) [6] was 5 (5=81-100%). The “Pre-emergence Test AMARE percentage damage (five point scale)” value in experiment [7] was 5 (5=81-100%). In addition, the “Pre-emergence Test ECHCG percentage damage (five point scale)” value in experiment [8] is on record as 5 (5=81-100%). Further, in [9], the “Pre-emergence Test IPOHE percentage damage (five point scale)” value is 5 (5=81-100%). In addition, in the experiment with Lolium perenne (LOLPE) [10], the “Pre-emergence Test LOLPE percentage damage (five point scale)” value is recorded as 5 (5=81-100%). Moreover, the “Pre-emergence Test SETFA percentage damage (five point scale)” value with Setaria faberi (SETFA) [11] is given as 5 (5=81-100%). Besides, the “Pre-emergence Test SOLNI percentage damage (five point scale)” value in the experiment on Solanum nigrum (SOLNI) [12] was 5 (5=81-100%).

With `Fc1cc(Cl)cnc1Oc1cccc(F)c1-c1cc(C(F)(F)F)no1` [Compound A31], in experiment [1], the “percentage damage caused to the plant, AMARE” value is on record as 5 (5=81-100%). Further, the “percentage damage caused to the plant, ECHCG” value in experiment [2] is recorded as 5 (5=81-100%). Moreover, the “percentage damage caused to the plant, IPOHE” value in experiment [3] is recorded as 5 (5=81-100%). In the experiment with Lolium perenne (LOLPE) [4], the “percentage damage caused to the plant, LOLPE” value was 5 (5=81-100%). For the same molecule, in the experiment on Setaria faberi (SETFA) [5], the “percentage damage caused to the plant, SETFA” value was 5 (5=81-100%). In addition, in the experiment with Solanum nigrum (SOLNI) [6], the “percentage damage caused to the plant, SOLNI” value is on record as 5 (5=81-100%). Besides, in experiment [7], the “Pre-emergence Test AMARE percentage damage (five point scale)” value was 5 (5=81-100%). Moreover, the “Pre-emergence Test ECHCG percentage damage (five point scale)” value in experiment [8] is 5 (5=81-100%). In addition, the “Pre-emergence Test IPOHE percentage damage (five point scale)” value in experiment [9] is reported as 5 (5=81-100%). In the experiment with Lolium perenne (LOLPE) [10], the “Pre-emergence Test LOLPE percentage damage (five point scale)” value is 5 (5=81-100%). In addition, the “Pre-emergence Test SETFA percentage damage (five point scale)” value with Setaria faberi (SETFA) [11] is recorded as 5 (5=81-100%). Further, the “Pre-emergence Test SOLNI percentage damage (five point scale)” value with Solanum nigrum (SOLNI) [12] was 5 (5=81-100%).

In the case of `N#Cc1cccc(Oc2ccc(Cl)cn2)c1-n1cc(C(F)(F)F)cn1` [Compound A32], the “percentage damage caused to the plant, AMARE” value in experiment [1] is listed as 5 (5=81-100%). Also, the “percentage damage caused to the plant, ECHCG” value in [2] is given as 5 (5=81-100%). Further, in experiment [3], the “percentage damage caused to the plant, IPOHE” value is listed as 5 (5=81-100%). Further, in the experiment with Lolium perenne (LOLPE) [4], the “percentage damage caused to the plant, LOLPE” value is given as 5 (5=81-100%). Further, the “percentage damage caused to the plant, SETFA” value with Setaria faberi (SETFA) [5] is 5 (5=81-100%). In addition, the “percentage damage caused to the plant, SOLNI” value with Solanum nigrum (SOLNI) [6] was 5 (5=81-100%). Besides, the “Pre-emergence Test AMARE percentage damage (five point scale)” value in experiment [7] was 5 (5=81-100%). Further, the “Pre-emergence Test ECHCG percentage damage (five point scale)” value in [8] is listed as 5 (5=81-100%). For the same molecule, the “Pre-emergence Test IPOHE percentage damage (five point scale)” value in experiment [9] is 5 (5=81-100%). For the same molecule, the “Pre-emergence Test LOLPE percentage damage (five point scale)” value in the experiment on Lolium perenne (LOLPE) [10] is reported as 4 (4=61-80%). Besides, the “Pre-emergence Test SETFA percentage damage (five point scale)” value in the experiment on Setaria faberi (SETFA) [11] is reported as 5 (5=81-100%). In addition, the “Pre-emergence Test SOLNI percentage damage (five point scale)” value in the experiment with Solanum nigrum (SOLNI) [12] is on record as 5 (5=81-100%).

As to `N#Cc1cccc(Oc2ncc(Cl)cc2F)c1-n1cc(C(F)(F)F)cn1` [Compound A33, 3-[(5-chloro-3-fluoro-2-pyridyl)oxy]-2-[4-(trifluoromethyl)pyrazol-1-yl]benzonitrile], in [1], the “percentage damage caused to the plant, AMARE” value is given as 5 (5=81-100%). Moreover, the “percentage damage caused to the plant, ECHCG” value in experiment [2] was 5 (5=81-100%). Moreover, the “percentage damage caused to the plant, IPOHE” value in [3] is recorded as 5 (5=81-100%). For the same molecule, the “percentage damage caused to the plant, LOLPE” value in the experiment on Lolium perenne (LOLPE) [4] is given as 5 (5=81-100%). Also, the “percentage damage caused to the plant, SETFA” value in the experiment on Setaria faberi (SETFA) [5] is 5 (5=81-100%). The “percentage damage caused to the plant, SOLNI” value in the experiment with Solanum nigrum (SOLNI) [6] is 5 (5=81-100%). Further, the “Pre-emergence Test AMARE percentage damage (five point scale)” value in experiment [7] is recorded as 5 (5=81-100%). Moreover, the “Pre-emergence Test ECHCG percentage damage (five point scale)” value in experiment [8] is reported as 5 (5=81-100%). Also, the “Pre-emergence Test IPOHE percentage damage (five point scale)” value in [9] was 2 (2=21-40%). Further, the “Pre-emergence Test LOLPE percentage damage (five point scale)” value in the experiment with Lolium perenne (LOLPE) [10] is recorded as 4 (4=61-80%). The “Pre-emergence Test SETFA percentage damage (five point scale)” value in the experiment on Setaria faberi (SETFA) [11] is recorded as 5 (5=81-100%). For the same molecule, the “Pre-emergence Test SOLNI percentage damage (five point scale)” value with Solanum nigrum (SOLNI) [12] was 5 (5=81-100%).

For the molecule `N#Cc1cccc(Oc2ncc(F)cc2F)c1-n1cc(C(F)(F)F)cn1` [Compound A34], the “percentage damage caused to the plant, AMARE” value in experiment [1] was 5 (5=81-100%). In [2], the “percentage damage caused to the plant, ECHCG” value was 5 (5=81-100%). Also, the “percentage damage caused to the plant, IPOHE” value in experiment [3] is listed as 5 (5=81-100%). For the same molecule, the “percentage damage caused to the plant, LOLPE” value in the experiment on Lolium perenne (LOLPE) [4] is given as 5 (5=81-100%). For the same molecule, the “percentage damage caused to the plant, SETFA” value in the experiment with Setaria faberi (SETFA) [5] is on record as 5 (5=81-100%). Besides, the “percentage damage caused to the plant, SOLNI” value with Solanum nigrum (SOLNI) [6] is listed as 5 (5=81-100%). The “Pre-emergence Test AMARE percentage damage (five point scale)” value in experiment [7] was 5 (5=81-100%). Further, the “Pre-emergence Test ECHCG percentage damage (five point scale)” value in [8] was 5 (5=81-100%). Further, the “Pre-emergence Test IPOHE percentage damage (five point scale)” value in experiment [9] is given as 5 (5=81-100%). In the experiment with Lolium perenne (LOLPE) [10], the “Pre-emergence Test LOLPE percentage damage (five point scale)” value is reported as 5 (5=81-100%). The “Pre-emergence Test SETFA percentage damage (five point scale)” value in the experiment on Setaria faberi (SETFA) [11] was 5 (5=81-100%). In the experiment on Solanum nigrum (SOLNI) [12], the “Pre-emergence Test SOLNI percentage damage (five point scale)” value is on record as 5 (5=81-100%).

These data come from US12227495B2, “Herbicidal compounds” (SYNGENTA CROP PROTECTION AG, priority 2018, dated 2025).
